What was measured:
[1] = tested on: Gram-positive bacteria, including methicillin-resistant S. aureus and vancomycin-resistant E. faecium; assay: Antimicrobial susceptibility assay, summary over Gram-positive bacteria; format: cell-based; conditions: Staphylococcus aureus; Gram-positive bacteria incl. MRSA and VREF
Excerpt: The bacterial strains S. aureus ATCC 29213, S. aureus ATCC 29247, S. aureus ATCC BAA-41, E. faecium ATCC 49624, E. faecium ATCC 700221, E. faecalis ATCC 29212, S. epidermidis ATCC 12228, E. coli ATCC 25922, and K. pneumoniae ATCC BAA-1144 used in the antimicrobial susceptibility assays were purchased from American Type Culture Collection (ATCC, USA). B. subtilis strain 168 was already available in our in-house collection. E. coli JM109 WM647 was kindly provided by Dr. W. Margolin (University of Texas-Houston Medical School). FM 4–64 was purchased from Invitrogen (Eugene, Oregon). All other chemicals and reagents were purchased from Sigma-Aldrich. Stock solutions were prepared in DMSO. The final percentage of DMSO in the assays was 1% (v/v) for all experiments.
Antimicrobial susceptibility tests were conducted in 96-well microplates using the broth microdilution procedure described in the Clinical and Laboratory Standards Institute (CLSI) guidelines. […] After incubation for 18 h at 37°C, the absorbance at 600 nm (A600) was recorded using a microplate reader (Bio-Rad laboratory Ltd., UK) and the percentage of bacterial cell inhibition with respect to vehicles (1% DMSO) was calculated. […]

[2] = tested on: B. subtilis strain 168 cells; assay: Bacterial morphology and membrane staining studies; format: cell-based; conditions: 4 µM compound
Method: The B. subtilis strain 168 cells were grown in LB medium. The cultures at an A600 of 0.01 from an overnight culture were inoculated in the same medium containing different concentrations of the test compounds and grown at 37°C for 4 h. The cells for morphology studies were harvested and resuspended in 100 µL of PBS (phosphate buffered saline) buffer containing 0.25% agarose. For membrane staining, the B. subtilis cells were further incubated with 1.6 µM of FM 4–64 for an additional 30 min at 37°C without shaking before harvested and resuspended in 100 µL PBS buffer containing 0.25% agarose. 10 µL of the suspension mixture were then placed on a microscopic slide pretreated with 0.1% (w/v) poly-L-lysine and the morphology of the bacterial cells was observed under a phase-contrast optical microscope at 40× magnification. The images were captured using an Olympus Bio Imaging Navigator FSX 100 microscope.

S. aureus FtsZ = target: T1, S. aureus FtsZ (Staphylococcus aureus, UniProt P0A031); assay: Light scattering assay of FtsZ polymerization; format: biochemical; conditions: for inhibition of polymerization in the presence of Triton X-100: 0.01% Triton X-100, berberine 200 and 500 µM, compound 2 10 and 25 µM
T1 construct: made in house; host or cells: E. coli BL21(DE3)
T1 sequence (P0A031 1-390): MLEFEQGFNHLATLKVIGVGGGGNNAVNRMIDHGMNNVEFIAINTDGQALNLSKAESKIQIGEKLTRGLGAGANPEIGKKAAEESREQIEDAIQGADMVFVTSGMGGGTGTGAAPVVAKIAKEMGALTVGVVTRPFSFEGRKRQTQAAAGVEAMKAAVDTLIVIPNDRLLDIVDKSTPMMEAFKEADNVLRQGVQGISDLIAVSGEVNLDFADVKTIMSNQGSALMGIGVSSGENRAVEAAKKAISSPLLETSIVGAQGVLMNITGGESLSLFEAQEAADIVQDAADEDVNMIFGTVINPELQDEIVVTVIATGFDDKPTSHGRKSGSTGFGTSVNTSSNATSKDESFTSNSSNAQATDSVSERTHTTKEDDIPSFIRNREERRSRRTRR
Method: E. coli BL21(DE3) cells were transformed with the pRSET-A-S vector carrying S. aureus FtsZ with a 6-histidine tag attached at its N-terminus under the control of a T7 promoter. […] When the OD600 reached 0.8, protein expression was induced with 0.4 mM isopropyl-β-D-thiogalactopyranoside (IPTG) for 4 h. Cells were harvested by centrifugation at 9000 rpm for 20 min at 4°C. The cell pellet was resuspended in 20 mL of solubilization buffer (50 mM Tris-HCl, 150 mM NaCl, 1 mM PMSF and 1 mM EDTA, pH 7.4) and then lysed with 1 mg/mL of lysozyme. The mixture was incubated for 1 h on ice. The cells were disrupted by sonication and the crude lysate obtained was centrifuged at 13,000 rpm for 1 h at 4°C. The supernatant containing 6-histidine tagged S. aureus FtsZ was collected and loaded onto a nickel charged HiTrap chelating column pre-equilibrated with starting buffer (20 mM sodium phosphate buffer, 0.5 M NaCl, pH 7.4). The column was then washed with 8 column volumes of the starting buffer to remove the unbound proteins, and the histidine-tagged enzyme was eluted by a linear gradient of 0−0.2 M imidazole. Fractions containing S. aureus FtsZ were pooled, buffer-exchanged with 20 mM NH4HCO3 (pH 8.0) at 4°C, lyophilized, and stored at −20°C. A stock solution of S. aureus FtsZ for the subsequent bioassay was prepared from the lyophilized powder.
The light scattering assay was performed using a protocol adapted from the literature. The polymerization and depolymerization of recombinant S. aureus FtsZ was measured using 90° light scattering in a thermostatically (37°C) controlled fluorescence spectrometer (Perkin Elmer, USA). Both excitation and emission wavelengths were set to 600 nm with a slit width of 2.5 nm. S. aureus FtsZ (6 µM) in 50 mM of MOPS buffer (pH 6.5) was incubated with vehicle (1% DMSO) or different concentrations of the test compound for 10 min at 25°C. 50 mM KCl and 10 mM MgCl2 were then added to establish a baseline. After 8 min, a final concentration of 1 mM GTP was added at the last fraction and the increase in light scattering was measured for an additional 2000s. The rate and extent of polymerization were measured. Appropriate blanks were subtracted from all experimental data. Moreover, in order to rule out unselective inhibition by formation of aggregates, control experiments with 0.01% (v/v) Triton X-100 from a freshly prepared 1% (v/v) stock solution were performed for berberine and compound 2 [40], [41]. Reported results are the average of three independent experiments.

Compound | MIC [1] [µg/mL] | cell length of B. subtilis ([2]; 4 h at 37°C, compared to untreated cells) | perturbation of the cell membrane (FM 4-64 staining) ([2]; B. subtilis 168, compared to untreated cells) | inhibition of S. aureus FtsZ polymerization at increasing concentrations (S. aureus FtsZ; 10 µM, 25 µM and 50 µM compound) | inhibition at 50 µM (S. aureus FtsZ; 50 µM compound, FtsZ 6 µM, 1 mM GTP, light scattering) [%] | inhibition of polymerization in the presence of Triton X-100 (S. aureus FtsZ) | inhibition at 200 µM (S. aureus FtsZ; 200 µM compound, FtsZ 6 µM, 1 mM GTP, light scattering) [%]
COc1ccc2cc3[n+](cc2c1OCCCOc1ccc(Cl)cc1)CCc1cc2c(cc1-3)OCO2 [Compound 2] | 2 to 4 | significantly increased | did not induce any detectable perturbation | strongly inhibited the S. aureus FtsZ polymerization in a dose-dependent manner | ~70 | maintained | 
COc1ccc2cc3[n+](cc2c1OC)CCc1cc2c(cc1-3)OCO2 [Berberine, Berberine chloride] |  |  |  |  |  | maintained | ~30
